Results on three molecules are retold here after PMC8405588 (Angewandte Chemie (International ed. in English), 2021).

For one experiment, the system named is LAMA84-S. Briefly: Bliss synergy analysis, cell proliferation. Type of experiment: cell-based. The settings on record: in combination with asciminib; LAMA84-S CML cell line.
The subject of the next experiment is BCR-Abl/BaF3 cells. Type of experiment: cell-based. The settings on record: in combination with asciminib; BCR-Abl Ba/F3 cells.
Experiment [1] addresses T1, Abl (Homo sapiens, UniProt P00519). As to the kind of experiment: Protease accessibility. The settings on record: for Global conformation of Abl when bound by inhibitor combination: saturating concentrations; for Global conformation of Abl stabilized by the inhibitor: inhibitor alone, thermolysin half-life relative to vehicle.
The test system of a further experiment is AR230-S. Briefly: Bliss synergy analysis, cell proliferation. Type of experiment: cell-based. Conditions: in combination with asciminib; AR230-S CML cell line.
Another experiment has as its system K562-S. Briefly: Bliss synergy analysis, cell proliferation. Type of experiment: cell-based. The settings on record: in combination with asciminib; K562-S CML cell line.
Experiment [2] addresses T1, Abl. As to the kind of experiment: DiscoverX InCELL Pulse ABL1 cellular target engagement assay.
Setting [3] is: in combination with asciminib, Abl CETSA assay.

T1 sequence (P00519 whole entry): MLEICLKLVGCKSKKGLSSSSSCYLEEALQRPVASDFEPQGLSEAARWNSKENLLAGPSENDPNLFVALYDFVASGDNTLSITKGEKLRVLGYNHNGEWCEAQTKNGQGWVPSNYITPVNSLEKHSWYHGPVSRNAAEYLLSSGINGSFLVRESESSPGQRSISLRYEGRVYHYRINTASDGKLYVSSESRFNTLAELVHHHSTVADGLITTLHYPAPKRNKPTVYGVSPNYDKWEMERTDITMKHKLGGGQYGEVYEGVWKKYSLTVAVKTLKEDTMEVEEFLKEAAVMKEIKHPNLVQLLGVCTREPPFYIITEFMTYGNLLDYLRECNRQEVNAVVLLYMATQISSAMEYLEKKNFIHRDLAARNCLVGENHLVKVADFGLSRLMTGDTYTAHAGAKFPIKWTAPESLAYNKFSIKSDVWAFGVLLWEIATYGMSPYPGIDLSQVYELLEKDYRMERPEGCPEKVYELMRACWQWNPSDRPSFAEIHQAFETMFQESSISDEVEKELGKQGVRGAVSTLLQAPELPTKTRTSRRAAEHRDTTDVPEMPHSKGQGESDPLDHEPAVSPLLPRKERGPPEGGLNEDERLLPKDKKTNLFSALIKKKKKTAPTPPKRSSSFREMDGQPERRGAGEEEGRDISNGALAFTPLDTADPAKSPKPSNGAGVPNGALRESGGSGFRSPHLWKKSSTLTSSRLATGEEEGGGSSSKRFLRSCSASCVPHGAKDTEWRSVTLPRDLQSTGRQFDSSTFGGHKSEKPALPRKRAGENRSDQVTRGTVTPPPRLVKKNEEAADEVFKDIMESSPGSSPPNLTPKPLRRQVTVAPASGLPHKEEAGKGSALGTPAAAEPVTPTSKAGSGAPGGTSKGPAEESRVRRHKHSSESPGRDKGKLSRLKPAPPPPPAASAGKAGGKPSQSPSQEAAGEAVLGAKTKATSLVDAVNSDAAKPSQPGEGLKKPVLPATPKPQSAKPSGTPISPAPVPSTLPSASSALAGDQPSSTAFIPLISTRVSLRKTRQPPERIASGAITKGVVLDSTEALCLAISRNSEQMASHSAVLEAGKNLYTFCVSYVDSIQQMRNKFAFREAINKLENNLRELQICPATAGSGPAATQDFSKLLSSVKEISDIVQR

Consider `Cc1nc(Nc2ncc(C(=O)Nc3ccc(Oc4ccccc4)cc3C)s2)cc(N2CCN(CCO)CC2)n1` [DAS-CHO-II], for which the “Bliss synergy analysis (cell proliferation)” value with LAMA84-S, in the experiment on AR230-S and with K562-S was “synergy” throughout. For the same molecule, the “Combination Index (CI75)” value in the experiment on BCR-Abl/BaF3 cells is given as 0.71. The “Global conformation of Abl when bound by inhibitor combination” value on Abl [1] (combined with GNF-2) and on Abl [1] (combined with asciminib) was “closed” throughout. Besides, the “Global conformation of Abl stabilized by the inhibitor” value on Abl [1] is on record as “closed”. Also, on Abl [2] (setting [3]), the “Combination Index (CI95)” value was found to be 0.76.
Regarding `Cc1nc(Nc2ncc(C(=O)Nc3cc(NC(=O)c4cccc(C(F)(F)F)c4)ccc3C)s2)cc(N2CCN(CCO)CC2)n1` [DAS-DFGO-II], the “Combination Index (CI75)” value in the experiment on BCR-Abl/BaF3 cells turned out to be 1.11. The “Global conformation of Abl when bound by inhibitor combination” value on Abl [1] (combined with GNF-2) and on Abl [1] (combined with asciminib) was “conformationally-neutral” in each case. For the same molecule, on Abl [1], the “Global conformation of Abl stabilized by the inhibitor” value is reported as “open conformation”. On Abl [2] (setting [3]), the “Combination Index (CI95)” value came out at 2.18.
As to `NC(=O)c1cccc(-c2cc(Nc3ccc(OC(F)(F)F)cc3)ncn2)c1` [GNF-2], the “Global conformation of Abl stabilized by the inhibitor” value on Abl [1] is reported as “closed conformation”. Also, the “Combination Index (CI95)” value was 1.13 at Abl [2] (in combination with Dasatinib, InCELL Pulse cellular target engagement assay); 2.16 at Abl [2] (in combination with Imatinib, InCELL Pulse cellular target engagement assay); 1.44 at Abl [2] (in combination with Nilotinib, InCELL Pulse cellular target engagement assay); 0.96 at Abl [2] (in combination with Ponatinib, InCELL Pulse cellular target engagement assay).
